Data taken from patent US20080071331A1, “Photodynamic Therapy For The Treatment Of Prostatic Conditions” (QLT Inc., priority 2004, published 2008).

System: prostate
Test: Photodynamic therapy of the dog prostate after direct intraprostatic injection of lemuteporfin and transurethral 690 nm light
Type: in vivo
Settings: mature intact mixed-breed dogs
Description: Eight mature, intact, mixed-breed dogs are premedicated with butorphanol (0.4 mg per kilogram of body weight), acepromazine (0.1 mg/kg), and atropine (0.4 mg/kg), all given by intramuscular injection. Anesthesia is induced with intravenous thiopental sodium (8 mg per 0.4536 kilograms of body weight) and maintained with inhaled isoflurane and oxygen (dosage as required for anesthetic effect). Lemuteporfin for injection (A-EA6 in U.S. Pat. No. 5,929,105) is reconstituted with Water for Injection to give a stock concentration of 2.0 mg/ml and diluted with 5% Dextrose in water to a concentration 0.2 mg/ml. A standard cystoscope is inserted into the urethra. Injections of the drug are then delivered to the prostate using a commercially available transurethral injection device (InjecTx™, San Jose, Calif., USA) which is compatible with the cystoscope. Two injections of 0.5 ml are given to each left lobe of the prostate and 2 injections of 1.0 ml are given to each right lobe of the prostate. The transurethral injection device is then removed and a guidewire is inserted through the working channel of the cystoscope. The activation-energy delivery device comprises: a cylindrical fibre optic with a 200 μm diameter core, a 25 mm long diffuser, and a power rating of 175 mW/cm (maximum power load, 437.5 mW); a reflective-cap fibre-centering balloon catheter with a 20 mm treatment window supplied with a guidewire for positioning the device in the urethra; and a 3 W 690 nm red-light diode laser (AOC, South Plainfield, N.J., USA). The catheter is inserted and positioned using the guidewire which is fed through an internal channel of the catheter. Once the catheter is in position the balloon is inflated to secure it in place. The guidewire is removed from the catheter and the fiber optic diffuser is inserted into the catheter and secured in place. The treatment assembly is positioned in the urethra using ultrasonic guidance. Ultrasound is also used to position the needles for four percutaneous intraprostatic injections (two per lobe separated by longitudinally by 1 cm). […]

[1] = 0.2 mg/ml intraprostatic injections, 690 nm light 25, 50 or 100 J/cm^2, after seven days

C=Cc1c(C)c2cc3nc(cc4[nH]c(cc5nc(cc1[nH]2)C(C)=C5CCC(=O)OCCO)c(CCC(=O)OCCO)c4C)[C@@]1(C)C3=CC=C(C(=O)OC)[C@H]1C(=O)OC [Lemuteporfin, lemuteporfin]
Bowel, bladder, and prostate sizes [1]: within normal ranges
PDT-associated damage in the urethra [1]: no significant PDT-associated damage
PDT-associated tissue damage in the target tissue (prostates) (0.2 mg/ml, 2 x 0.5 ml left lobe, 2 x 1.0 ml right lobe, 690 nm light 25, 50 or 100 J/cm^2 15 minutes after last injection, prostates harvested after seven days): evidence of PDT-associated tissue damage in the target tissue
